Test results reported in ChEMBL document CHEMBL1201862, “PubChem BioAssay data set” (2004).
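Where inhibition never reached the appropriate level, the endpoint shown equals the highest concentration tested. Otherwise, values were interpolated linearly from a five-concentration, 48-hour dose response in 96-well plates. Abbreviation: GI50, concentration required for 50% inhibition of growth.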 Calls of active or inactive are those of the source. Cut-off read from the data, not from the text of the source: active = GI50 up to about 1.1 µM and inactive = higher.

Legend:
Test in all cases: NCI-60 cell line screen, 48 h
TK-10 = tested on: TK-10
M19-MEL = tested on: M19-MEL
DMS-114 = tested on: DMS-114
HOP-92 = tested on: HOP-92
SF-539 = tested on: SF-539
Malme-3M = tested on: Malme-3M
EKVX = tested on: EKVX
NCI-H522 = tested on: NCI-H522
SF-295 = tested on: SF-295
A498 = tested on: A498
NCI-H226 = tested on: NCI-H226
SK-OV-3 = tested on: SK-OV-3
HL-60 = tested on: HL-60
ACHN = tested on: ACHN
SNB-78 = tested on: SNB-78
HCC 2998 = tested on: HCC 2998
OVCAR-4 = tested on: OVCAR-4
RXF 393 = tested on: RXF 393
HOP-62 = tested on: HOP-62
NCI/ADR-RES = tested on: NCI/ADR-RES

SMILES | GI50 (TK-10) | GI50 (M19-MEL) | GI50 (DMS-114) | GI50 (HOP-92) | GI50 (SF-539) | GI50 (Malme-3M) | GI50 (EKVX) | GI50 (NCI-H522) | GI50 (SF-295) | GI50 (A498) | GI50 (NCI-H226) | GI50 (SK-OV-3) | GI50 (HL-60) | GI50 (ACHN) | GI50 (SNB-78) | GI50 (HCC 2998) | GI50 (OVCAR-4) | GI50 (RXF 393) | GI50 (HOP-62) | GI50 (NCI/ADR-RES)
Clc1ccc(C2SCc3nc4ccccc4n32)cc1 (configuration not stated) | 30.1 µM (inactive) | 19.9 µM (inactive) | 5.57 µM (inactive) | 2.54 µM (inactive) | 22.6 µM (inactive) | 11.1 µM (inactive) | 34.5 µM (inactive) | 14.4 µM (inactive) | 26.2 µM (inactive) | 20.9 µM (inactive) | 19.4 µM (inactive) | 25.4 µM (inactive) | 5.24 µM (inactive) | 30.1 µM (inactive) | 29.9 µM (inactive) |  |  |  |  | 
COc1ccc(NC(=S)NNC(=O)c2nsc3ccccc23)cc1 | 43.4 µM (inactive) | 33 µM (inactive) | 32.1 µM (inactive) | 17.4 µM (inactive) | 28.3 µM (inactive) |  | 28.3 µM (inactive) |  |  |  |  |  | 19.9 µM (inactive) | 43.9 µM (inactive) | 41.7 µM (inactive) | 68.2 µM (inactive) | 62.2 µM (inactive) | 22 µM (inactive) | 43.5 µM (inactive) | 
Nc1ncnc2c1nnn2C1OC(CO)C(O)C1O (configuration not stated) |  | 8.57 µM (inactive) | 3.64 µM (inactive) | 7.14 µM (inactive) | 9.14 µM (inactive) | 3.58 µM (inactive) | 7.66 µM (inactive) | 1.87 µM (inactive) | 30.1 µM (inactive) | 3.94 µM (inactive) | 3.71 µM (inactive) | 0.822 µM (active) | 0.405 µM (active) |  | 37.6 µM (inactive) | 1.83 µM (inactive) | 8.85 µM (inactive) |  | 6.05 µM (inactive) | 8.97 µM (inactive)
Nc1nc(=O)[nH]cc1F [FLUCYTOSINE] | > 100 µM (inactive) |  |  | > 100 µM (inactive) | > 100 µM (inactive) | > 100 µM (inactive) | > 100 µM (inactive) | > 100 µM (inactive) | > 100 µM (inactive) | > 100 µM (inactive) | > 100 µM (inactive) | > 100 µM (inactive) | > 100 µM (inactive) | > 100 µM (inactive) |  | > 100 µM (inactive) | > 100 µM (inactive) | > 100 µM (inactive) | > 100 µM (inactive) | > 100 µM (inactive)
